Measured values taken from publication PMC5730575, “A Simple Platform for the Rapid Development of Antimicrobials” (Scientific Reports, 2017).

Experiments:
[1] = tested on: S. epidermidis; test: 100-peptide microarray binding of S. epidermidis; settings: S. epidermidis labeled with CTO and AF647, 106 CFU/mL
[2] = tested on: A/CA/7/2009 H1N1 pdm09 hemagglutination of turkey red blood cells; test: Hemagglutination inhibition (HAI) assay; assay type: biochemical, influenza A/CA/07/2009 pdm09 H1N1; settings: peptides tested 50 µM to 1.76 µM, 2 fold dilutions; 1 HAU virus; 0.5% turkey RBC; non-inhibitors: even at 50 µM
[3] = tested on: A/CA/07/2009 pdm09 H1N1; test: 100-peptide microarray binding of pdm09 H1N1; set-up: species or system influenza A/CA/07/2009 pdm09 H1N1; settings: two color fluorescent labeling (AF555/AF647); six replicate spots per peptide; versus background in empty spots, p < 0.01
[4] = cited from earlier work

CSGAMHGPATTRPAIGRYPW [p52]
binding of S. epidermidis on the peptide array [1]: positives binders

CSGAVNYQEVFNKARMKKKR [p58]
inhibition of hemagglutination by pdm09 of red blood cells (peptides) [2]: did not prevent hemagglutination | binding of pdm09 H1N1 on the peptide array [3]: bound

CSGEWRQQKMMPKSAPNKPQ [p94]
binding of pdm09 H1N1 on the peptide array [3]: did not

CSGFRKHPWKHPRHKFHKPW [p104]
binding of S. epidermidis on the peptide array [1]: positives binders

CSGFWPRKHPFRWKHPRPKH [p107]
inhibition of hemagglutination by pdm09 of red blood cells (peptides) [2]: did not prevent hemagglutination | binding of pdm09 H1N1 on the peptide array [3]: bound

CSGHNIYAQYGYPYDHMYEG [p125]
inhibition of hemagglutination by pdm09 of red blood cells (peptides) [2]: inhibited hemagglutination

CSGKSQEIGDPDDIWNQMKW [p149]
inhibition of hemagglutination by pdm09 of red blood cells (peptides) [2]: inhibited hemagglutination

CSGKVHRWKYHSRQNYTYRP [p151]
inhibition of hemagglutination by pdm09 of red blood cells (peptides) [2]: did not prevent hemagglutination | binding of pdm09 H1N1 on the peptide array [3]: bound

CSGNETAPDNTYRYKQSAQK [p174]
inhibition of hemagglutination by pdm09 of red blood cells (peptides) [2]: did not prevent hemagglutination | binding of pdm09 H1N1 on the peptide array [3]: bound

CSGQFSAKKYWEIKPMDYWK [p204]
inhibition of hemagglutination by pdm09 of red blood cells (peptides) [2]: did not prevent hemagglutination | binding of pdm09 H1N1 on the peptide array [3]: bound

CSGSFNQEYFPYPMIDYLKK [p227]
inhibition of hemagglutination by pdm09 of red blood cells (peptides) [2]: inhibited hemagglutination

CSGYNWSRKKHKYYPRKIAY [p43]
inhibition of hemagglutination by pdm09 of red blood cells (peptides) [2]: did not prevent hemagglutination | binding of pdm09 H1N1 on the peptide array [3]: bound

CSGYYDVHMGPMNDNHYFKK [p228]
inhibition of hemagglutination by pdm09 of red blood cells (peptides) [2]: did not prevent hemagglutination | binding of pdm09 H1N1 on the peptide array [3]: bound

enfuvirtide
elimination half-life [4]: 3.8 h
